Experimental data taken from ChEMBL document CHEMBL5634104, “Identification of 1,3,4-oxadiazolyl-containing β-carboline derivatives as novel α-glucosidase inhibitors with antidiabetic activity” (Eur J Med Chem, 2023).
Activity calls are given as the source filed them. The rule behind the calls is not given here.

Columns and labels:
Alpha-glucosidase [1] = target: T1, Alpha-glucosidase (Saccharomyces cerevisiae S288c, UniProt P53341+P38158+P07265); assay: Inhibition of Saccharomyces cerevisiae Alpha-glucosidase using p-NPG as substrate and measured after 10 mins; format: protein assay
Mus musculus [2] = assay: Antihyperlipidemic activity against streptozocin-induced C57/6J mouse assessed as decrease in triglyceride level at 100 mg/kg/day, po administered for 4 weeks by automatic biochemical analyzer; format: functional, organism-based
Mus musculus [3] = assay: Antihyperlipidemic activity against streptozocin-induced C57/6J mouse assessed as decrease in total cholesterol level at 100 mg/kg/day, po administered for 4 weeks by automatic biochemical analyzer; format: functional, organism-based
Mus musculus [4] = assay: Anti-diabetic activity against streptozocin-induced C57/6J mouse diabetes model assessed as change in fasting blood glucose at 100 mg/kg/day, po and measured after 1 week; format: functional, organism-based; settings: time 1.0 weeks
Mus musculus [5] = assay: Anti-diabetic activity against streptozocin-induced C57/6J mouse diabetes model assessed as decrease in blood glucose level at 100 mg/kg/day, po administered for 25 days in presence of sucrose by OGTT assay; format: functional, organism-based; settings: time 25.0 day
Mus musculus [6] = assay: Anti-diabetic activity against streptozocin-induced C57/6J mouse diabetes model assessed as decrease in fasting blood glucose at 100 mg/kg/day, po and measured from 2 to 4 weeks; format: functional, organism-based; settings: time 2-4 weeks
Alpha-glucosidase [7] = target: T1, Alpha-glucosidase; assay: Noncompetitive inhibition of Saccharomyces cerevisiae Alpha-glucosidase assessed as decrease in Vmax with constant Km using p-NPG as substrate by Lineweaver-Burk plot analysis; format: protein assay
L02 = assay: Cytotoxicity against human L02 cells upto 32 uM; format: toxicity, cell-based; settings: l02, 32 µM
Mus musculus [8] = assay: Antihyperlipidemic activity against streptozocin-induced C57/6J mouse assessed as decrease in total cholesterol level at 50 mg/kg/day, po administered for 4 weeks by automatic biochemical analyzer; format: functional, organism-based
Mus musculus [9] = assay: Antihyperlipidemic activity against streptozocin-induced C57/6J mouse assessed as decrease in triglyceride level at 50 mg/kg/day, po administered for 4 weeks by automatic biochemical analyzer; format: functional, organism-based
Mus musculus [10] = assay: Anti-diabetic activity against streptozocin-induced C57/6J mouse diabetes model assessed as decrease in fasting blood glucose at 50 mg/kg/day, po and measured from 2 to 4 weeks; format: functional, organism-based; settings: time 2-4 weeks
Mus musculus [11] = assay: Anti-diabetic activity against streptozocin-induced C57/6J mouse diabetes model assessed as decrease in blood glucose level at 50 mg/kg/day, po administered for 25 days in presence of sucrose by OGTT assay; format: functional, organism-based; settings: time 25.0 day
Mus musculus [12] = assay: Anti-diabetic activity against streptozocin-induced C57/6J mouse diabetes model assessed as change in fasting blood glucose at 50 mg/kg/day, po and measured after 1 week; format: functional, organism-based; settings: time 1.0 weeks

| Structure (SMILES) | IC50 (Alpha-glucosidase [1]) | further results |
| --- | --- | --- |
| FC(F)(F)c1cccc(CSc2nnc(-c3cc4c([nH]c5ccccc54)c(-c4ccccc4)n3)o2)c1 | 12.25 µM | – |
| Cc1ccccc1CSc1nnc(-c2cc3c([nH]c4ccccc43)c(-c3ccccc3)n2)o1 | 3.33 µM | – |
| C[C@H]1O[C@H](O[C@H]2[C@H](O)[C@@H](O)[C@@H](O[C@H]3[C@H](O)[C@@H](O)C(O)O[C@@H]3CO)O[C@@H]2CO)[C@H](O)[C@@H](O)[C@@H]1N[C@H]1C=C(CO)[C@@H](O)[C@H](O)[C@H]1O (some centres undefined) | – | Activity (Mus musculus [2]): Active; Activity (Mus musculus [3]): Active; Activity (Mus musculus [4]): inactive; Activity (Mus musculus [5]): Active; Activity (Mus musculus [6]): Active |
| Clc1ccccc1CSc1nnc(-c2cc3c([nH]c4ccccc43)c(-c3ccccc3)n2)o1 | 5.46 µM | – |
| Brc1ccccc1CSc1nnc(-c2cc3c([nH]c4ccccc43)c(-c3ccccc3)n2)o1 | 6.97 µM | – |
| Cc1cccc(CSc2nnc(-c3cc4c([nH]c5ccccc54)c(-c4ccccc4)n3)o2)c1 | 10.4 µM | – |
| Fc1cccc(CSc2nnc(-c3cc4c([nH]c5ccccc54)c(-c4ccccc4)n3)o2)c1 | 15.41 µM | – |
| c1ccc(-c2ccccc2CSc2nnc(-c3cc4c([nH]c5ccccc54)c(-c4ccccc4)n3)o2)cc1 | 3.07 µM | Ki (Alpha-glucosidase [7]): 1.22 µM; Activity (L02): Non-Toxic; Activity (Mus musculus [8]): Active; Activity (Mus musculus [9]): Active; Activity (Mus musculus [10]): Active; Activity (Mus musculus [11]): Active; Activity (Mus musculus [12]): inactive |
| COC(=O)c1cccc(CSc2nnc(-c3cc4c([nH]c5ccccc54)c(-c4ccccc4)n3)o2)c1 | 4.93 µM | – |
| c1ccc(-c2ccc(CSc3nnc(-c4cc5c([nH]c6ccccc65)c(-c5ccccc5)n4)o3)cc2)cc1 | 4.32 µM | – |
| COC(=O)c1ccccc1CSc1nnc(-c2cc3c([nH]c4ccccc43)c(-c3ccccc3)n2)o1 | 5.58 µM | – |
| FC(F)(F)Oc1ccccc1CSc1nnc(-c2cc3c([nH]c4ccccc43)c(-c3ccccc3)n2)o1 | 10.64 µM | – |
| FC(F)(F)Oc1cccc(CSc2nnc(-c3cc4c([nH]c5ccccc54)c(-c4ccccc4)n3)o2)c1 | 10.93 µM | – |
| Clc1ccc(CSc2nnc(-c3cc4c([nH]c5ccccc54)c(-c4ccccc4)n3)o2)cc1Cl | 9.66 µM | – |
| Clc1cccc(CSc2nnc(-c3cc4c([nH]c5ccccc54)c(-c4ccccc4)n3)o2)c1 | 12.71 µM | – |
| Fc1ccc(CSc2nnc(-c3cc4c([nH]c5ccccc54)c(-c4ccccc4)n3)o2)cc1F | 9.12 µM | – |
| O=[N+]([O-])c1cccc(CSc2nnc(-c3cc4c([nH]c5ccccc54)c(-c4ccccc4)n3)o2)c1 | 5.76 µM | – |
| O=[N+]([O-])c1ccccc1CSc1nnc(-c2cc3c([nH]c4ccccc43)c(-c3ccccc3)n2)o1 | 9.57 µM | – |
| Brc1cccc(CSc2nnc(-c3cc4c([nH]c5ccccc54)c(-c4ccccc4)n3)o2)c1 | 8.47 µM | – |
| FC(F)(F)c1ccccc1CSc1nnc(-c2cc3c([nH]c4ccccc43)c(-c3ccccc3)n2)o1 | 10.59 µM | – |
| c1ccc(-c2cccc(CSc3nnc(-c4cc5c([nH]c6ccccc65)c(-c5ccccc5)n4)o3)c2)cc1 | 3.39 µM | – |
| Fc1ccccc1CSc1nnc(-c2cc3c([nH]c4ccccc43)c(-c3ccccc3)n2)o1 | 14.75 µM | – |

Second part, led by results:

| IC50 (Alpha-glucosidase [1]) | Structure (SMILES) | further results |
| --- | --- | --- |
| 11.86 µM | Cc1ccc(CSc2nnc(-c3cc4c([nH]c5ccccc54)c(-c4ccccc4)n3)o2)cc1 | – |
| 6.44 µM | FC(F)(F)Oc1ccc(CSc2nnc(-c3cc4c([nH]c5ccccc54)c(-c4ccccc4)n3)o2)cc1 | – |
| 5.31 µM | Clc1ccc(CSc2nnc(-c3cc4c([nH]c5ccccc54)c(-c4ccccc4)n3)o2)cc1 | – |
| 10.36 µM | N#Cc1ccc(CSc2nnc(-c3cc4c([nH]c5ccccc54)c(-c4ccccc4)n3)o2)cc1 | – |
| 15.49 µM | c1ccc(CSc2nnc(-c3cc4c([nH]c5ccccc54)c(-c4ccccc4)n3)o2)cc1 | Ki (Alpha-glucosidase [7]): 1.81 µM |
| 8.48 µM | FC(F)(F)c1ccc(CSc2nnc(-c3cc4c([nH]c5ccccc54)c(-c4ccccc4)n3)o2)cc1 | – |
| 4.95 µM | CC(C)(C)c1ccc(CSc2nnc(-c3cc4c([nH]c5ccccc54)c(-c4ccccc4)n3)o2)cc1 | – |
| 10.57 µM | N#Cc1ccccc1CSc1nnc(-c2cc3c([nH]c4ccccc43)c(-c3ccccc3)n2)o1 | – |
| 5.42 µM | Brc1ccc(CSc2nnc(-c3cc4c([nH]c5ccccc54)c(-c4ccccc4)n3)o2)cc1 | – |
| 14.73 µM | Fc1ccc(CSc2nnc(-c3cc4c([nH]c5ccccc54)c(-c4ccccc4)n3)o2)cc1 | – |
| 4.6 µM | COC(=O)c1ccc(CSc2nnc(-c3cc4c([nH]c5ccccc54)c(-c4ccccc4)n3)o2)cc1 | – |
| 6.15 µM | CS(=O)(=O)c1ccc(CSc2nnc(-c3cc4c([nH]c5ccccc54)c(-c4ccccc4)n3)o2)cc1 | – |
| 10.42 µM | N#Cc1cccc(CSc2nnc(-c3cc4c([nH]c5ccccc54)c(-c4ccccc4)n3)o2)c1 | – |
| 3.1 µM | O=[N+]([O-])c1ccc(CSc2nnc(-c3cc4c([nH]c5ccccc54)c(-c4ccccc4)n3)o2)cc1 | Ki (Alpha-glucosidase [7]): 2.86 µM |
